Assay results: US20220061324A1, “PESTICIDALLY ACTIVE HETEROCYCLIC DERIVATIVES WITH SULFUR CONTAINING SUBSTITUENTS” (SYNGENTA CROP PROTECTION AG, priority 2018, published 2022)
Like-named read-outs stand apart in the source and are kept apart here.

Tests used:
Assay type in all cases: in vivo
[1] = tested on: Diabrotica balteata (Corn Root Worm); test: Activity against Diabrotica balteata (corn root worm), maize sprouts sprayed; settings: 96 h, read-out: effect in at least one of the two categories (mortality or growth inhibition); for percent effect (mortality or growth inhibition) at 200 ppm: application rate 200 ppm, L2 larvae, 4 days after infestation
Experimental: Example B1: Activity Against Diabrotica balteata (Corn Root Worm)
Maize sprouts placed onto an agar layer in 24-well microtiter plates were treated with aqueous test solutions prepared from 10,000 ppm DMSO stock solutions by spraying. After drying, the plates were infested with L2 larvae (6 to 10 per well). The samples were assessed for mortality and growth inhibition in comparison to untreated samples 4 days after infestation.

[2] = tested on: Plutella xylostella (Diamond Back Moth); test: Activity against Plutella xylostella (diamond back moth), artificial diet; settings: 192 h, read-out: effect in at least one of the two categories (mortality or growth inhibition); for percent effect (mortality or growth inhibition) at 200 ppm: application rate 200 ppm, eggs, 8 days after infestation
Experimental: Example B3: Activity Against Plutella xylostella (Diamond Back Moth)
24-well microtiter plates with artificial diet were treated with aqueous test solutions prepared from 10,000 ppm DMSO stock solutions by pipetting. After drying, Plutella eggs were pipetted through a plastic stencil onto a gel blotting paper and the plate was closed with it. The samples were assessed for mortality and growth inhibition in comparison to untreated samples 8 days after infestation.

[3] = tested on: Myzus persicae (Green Peach Aphid); test: Activity against Myzus persicae (green peach aphid), feeding/contact activity; settings: 144 h
Experimental: Example B4: Activity Against Myzus persicae (Green Peach Aphid) Feeding/Contact Activity
Sunflower leaf discs were placed onto agar in a 24-well microtiter plate and sprayed with aqueous test solutions prepared from 10,000 ppm DMSO stock solutions. After drying, the leaf discs were infested with an aphid population of mixed ages. The samples were assessed for mortality 6 days after infestation.

[4] = tested on: Spodoptera littoralis (Egyptian Cotton Leaf Worm); test: Activity against Spodoptera littoralis (Egyptian cotton leaf worm), cotton leaf discs; settings: foliar, 72 h, read-out: control (mortality, anti-feedant effect or growth inhibition)
Experimental: Example B5: Activity Against Spodoptera littoralis (Egyptian Cotton Leaf Worm)
Cotton leaf discs were placed onto agar in 24-well microtiter plates and sprayed with aqueous test solutions prepared from 10,000 ppm DMSO stock solutions. After drying the leaf discs were infested with five L1 larvae. The samples were assessed for mortality, anti-feeding effect, and growth inhibition in comparison to untreated samples 3 days after infestation. Control of Spodoptera littoralis by a test sample is given when at least one of the categories mortality, anti-feedant effect, and growth inhibition is higher than the untreated sample.

[5] = application rate 200 ppm, feeding/contact, mixed ages, 6 days after infestation, read-out: mortality
[6] = application rate 200 ppm, L1 larvae, 3 days after infestation

CCS(=O)(=O)c1cc(Br)cnc1-c1ncc2c(OCC(F)(F)C(F)(F)F)nccn12 [Compound P4, 3-(5-bromo-3-ethylsulfonyl-2-pyridyl)-8-(2,2,3,3,3-pentafluoropropoxy)imi-dazo[1,5-a]pyrazine]
percent control (mortality or growth inhibition) at 200 ppm [1]: ≥ 80%
percent control (mortality or growth inhibition) at 200 ppm [2]: ≥ 80%
mortality at 200 ppm [3]: ≥ 80%
percent control (mortality, anti-feedant effect or growth inhibition) at 200 ppm [4]: ≥ 80%

CCSc1cccnc1-c1ncc2c(OCC(F)(F)C(F)F)nccn12 [Compound P5]
percent control (mortality or growth inhibition) at 200 ppm [1]: ≥ 80%
percent control (mortality or growth inhibition) at 200 ppm [2]: ≥ 80%
mortality at 200 ppm [3]: ≥ 80%
percent control (mortality, anti-feedant effect or growth inhibition) at 200 ppm [4]: ≥ 80%

CCS(=O)(=O)c1cccnc1-c1ncc2c(OCC(F)(F)C(F)F)nccn12 [Compound P6, 3-(3-ethylsulfonyl-2-pyridyl)-8-(2,2,3,3-tetrafluoropropoxy)imi-dazo[1,5-a]pyrazine]
percent control (mortality or growth inhibition) at 200 ppm [1]: ≥ 80%
percent control (mortality or growth inhibition) at 200 ppm [2]: ≥ 80%
mortality at 200 ppm [3]: ≥ 80%
percent control (mortality, anti-feedant effect or growth inhibition) at 200 ppm [4]: ≥ 80%

CCSc1cccnc1-c1ncc2c(OCC(F)(F)C(F)(F)F)nccn12 [Compound P7, 3-(3-ethylsulfanyl-2-pyridyl)-8-(2,2,3,3,3-pentafluoropropoxy)imi-dazo[1,5-a]pyrazine]
percent control (mortality or growth inhibition) at 200 ppm [1]: ≥ 80%
percent control (mortality or growth inhibition) at 200 ppm [2]: ≥ 80%
mortality at 200 ppm [3]: ≥ 80%

CCS(=O)(=O)c1ccc(NC(=O)NC)nc1-c1ncc2c(OCC(F)(F)C(F)(F)F)nccn12 [Compound P9, 1-[5-ethylsulfonyl-6-[8-(2,2,3,3,3-penta-fluoropropoxy)imidazo [1,5-a]pyrazin-3-yl]-2-pyridyl]-3-methyl-urea]
percent effect (mortality or growth inhibition) at 200 ppm [1]: ≥ 80%
percent effect (mortality or growth inhibition) at 200 ppm [2]: ≥ 80%

CCS(=O)(=O)c1ccc(N(C)C(=O)NC)nc1-c1ncc2c(OCC(F)(F)C(F)(F)F)nccn12 [Compound P14, 1-[5-ethylsulfonyl-6-[8-(2,2,3,3,3-penta-fluoropropoxy)imidazo [1,5-a]pyrazin-3-yl]-2-pyridyl]-1,3-dimethyl-urea]
percent effect (mortality or growth inhibition) at 200 ppm [1]: ≥ 80%
percent effect (mortality or growth inhibition) at 200 ppm [2]: ≥ 80%
mortality at 200 ppm [3, 5]: ≥ 80%
percent control (mortality, anti-feedant effect or growth inhibition) at 200 ppm [4, 6]: ≥ 80%

CCS(=O)(=O)c1cc(C(C)(C)C#N)cnc1-c1ncc2c(OCC(F)(F)C(F)(F)F)nccn12 [Compound P16, 2-[5-ethylsulfonyl-6-[8-(2,2,3,3,3-penta-fluoropropoxy)imidazo [1,5-a]pyrazin-3-yl]-3-pyridyl]-2-methyl-propanenitrile]
percent effect (mortality or growth inhibition) at 200 ppm [1]: ≥ 80%
percent effect (mortality or growth inhibition) at 200 ppm [2]: ≥ 80%
mortality at 200 ppm [3, 5]: ≥ 80%
percent control (mortality, anti-feedant effect or growth inhibition) at 200 ppm [4, 6]: ≥ 80%

CCSc1cc(Oc2ccccn2)cnc1-c1ncc2c(OCC(F)(F)C(F)(F)F)nccn12 [Compound P20, 3-[3-ethylsulfanyl-5-(2-pyridyloxy)-2-pyridyl]-8-(2,2,3,3,3-penta-fluoropropoxy)imidazo [1,5-a]pyrazine]
percent effect (mortality or growth inhibition) at 200 ppm [1]: ≥ 80%
percent effect (mortality or growth inhibition) at 200 ppm [2]: ≥ 80%
percent control (mortality, anti-feedant effect or growth inhibition) at 200 ppm [4, 6]: ≥ 80%

CCSc1cc(C2CC2)cnc1-c1ncc2c(OCC(F)(F)C(F)(F)F)nccn12 [Compound P22, 3-(5-cyclopropyl-3-ethylsulfanyl-2-pyridyl)-8-(2,2,3,3,3-penta-fluoropropoxy)imidazo [1,5-a]pyrazine]
percent effect (mortality or growth inhibition) at 200 ppm [1]: ≥ 80%
percent effect (mortality or growth inhibition) at 200 ppm [2]: ≥ 80%
percent control (mortality, anti-feedant effect or growth inhibition) at 200 ppm [4, 6]: ≥ 80%

CCS(=O)(=O)c1ccc(Cl)nc1-c1ncc2c(OCC(F)(F)C(F)(F)F)cccn12 [Compound P30, 3-(6-chloro-3-ethylsulfonyl-2-pyridyl)-8-(2,2,3,3,3-pentafluoropropoxy)imi-dazo[1,5-a]pyridine]
percent control (mortality or growth inhibition) at 200 ppm [2]: ≥ 80%
percent control (mortality, anti-feedant effect or growth inhibition) at 200 ppm [4]: ≥ 80%

CCS(=O)(=O)c1ccc(NC)nc1-c1ncc2c(OCC(F)(F)C(F)(F)F)cccn12 [Compound P31, 5-ethylsulfonyl-N-methyl-6-[8-(2,2,3,3,3-penta-fluoropropoxy)imidazo [1,5-a]pyridin-3-yl]pyri-din-2-amine]
percent effect (mortality or growth inhibition) at 200 ppm [1]: ≥ 80%
percent effect (mortality or growth inhibition) at 200 ppm [2]: ≥ 80%
mortality at 200 ppm [3, 5]: ≥ 80%
percent control (mortality, anti-feedant effect or growth inhibition) at 200 ppm [4, 6]: ≥ 80%

CCS(=O)(=O)c1ccc(-n2cncn2)nc1-c1ncc2c(OCC(F)(F)C(F)(F)F)cccn12 [Compound P33, 3-[3-ethylsulfonyl-6-(1,2,4-triazol-1-yl)-2-pyridyl]-8-(2,2,3,3,3-pentafluoropropoxy)imi dazo[1,5-a]pyri-dine]
percent control (mortality or growth inhibition) at 200 ppm [1]: ≥ 80%
percent control (mortality or growth inhibition) at 200 ppm [2]: ≥ 80%
percent control (mortality, anti-feedant effect or growth inhibition) at 200 ppm [4]: ≥ 80%

CCS(=O)(=O)c1ccc(N(C)C(C)=O)nc1-c1ncc2c(OCC(F)(F)C(F)(F)F)cccn12 [Compound P37, N-[5-ethylsulfonyl-6-[8-(2,2,3,3,3-penta-fluoropropoxy)imidazo [1,5-a]pyridin-3-yl]-2-pyridyl]-N-methyl-acetamide]
percent effect (mortality or growth inhibition) at 200 ppm [1]: ≥ 80%
percent effect (mortality or growth inhibition) at 200 ppm [2]: ≥ 80%
mortality at 200 ppm [3, 5]: ≥ 80%

CCS(=O)(=O)c1ccc(N(C)C(=O)C2CC2)nc1-c1ncc2c(OCC(F)(F)C(F)(F)F)cccn12 [Compound P38, N-[5-ethylsulfonyl-6-[8-(2,2,3,3,3-penta-fluoropropoxy)imidazo [1,5-a]pyridin-3-yl]-2-pyridyl]-N-methyl-cyclopropanecarboxamide]
percent effect (mortality or growth inhibition) at 200 ppm [1]: ≥ 80%
percent effect (mortality or growth inhibition) at 200 ppm [2]: ≥ 80%
percent control (mortality, anti-feedant effect or growth inhibition) at 200 ppm [4, 6]: ≥ 80%

CCS(=O)(=O)c1cc(C2CC2)cnc1-c1ncc2c(OCC(F)(F)C(F)(F)F)cccn12 [Compound P40, 3-(5-cyclopropyl-3-ethylsulfonyl-2-pyridyl)-8-(2,2,3,3,3-penta-fluoropropoxy)imidazo [1,5-a]pyridine]
percent effect (mortality or growth inhibition) at 200 ppm [1]: ≥ 80%
percent effect (mortality or growth inhibition) at 200 ppm [2]: ≥ 80%
mortality at 200 ppm [3, 5]: ≥ 80%

CCSc1cc(N(C)C(C)=O)cnc1-c1ncc2c(OCC(F)(F)C(F)(F)F)cccn12 [Compound P41, N-[5-ethylsulfanyl-6-[8-(2,2,3,3,3-penta-fluoropropoxy)imidazo [1,5-a]pyridin-3-yl]-3-pyridyl]-N-methyl-acetamide]
percent effect (mortality or growth inhibition) at 200 ppm [2]: ≥ 80%

CCSc1cc(C2CC2)cnc1-c1ncc2c(OCC(F)(F)C(F)(F)F)cccn12 [Compound P42, 3-(5-cyclopropyl-3-ethylsulfanyl-2-pyridyl)-8-(2,2,3,3,3-penta-fluoropropoxy)imidazo [1,5-a]pyridine]
percent effect (mortality or growth inhibition) at 200 ppm [1]: ≥ 80%
percent effect (mortality or growth inhibition) at 200 ppm [2]: ≥ 80%

CCS(=O)(=O)c1cc(Br)cnc1-c1ncc2c(OCC(F)(F)C(F)(F)F)cccn12 [Compound P43, 3-(5-bromo-3-ethylsulfonyl-2-pyridyl)-8-(2,2,3,3,3-pentafluoropropoxy)imi-dazo[1,5-a]pyridine]
percent control (mortality or growth inhibition) at 200 ppm [1]: ≥ 80%
percent control (mortality or growth inhibition) at 200 ppm [2]: ≥ 80%

CCSc1cc(C(C)(C)C#N)cnc1-c1ncc2c(OCC(F)(F)C(F)(F)F)cccn12 [Compound P46, 2-[5-ethylsulfanyl-6-[8-(2,2,3,3,3-penta-fluoropropoxy)imidazo [1,5-a]pyridin-3-yl]-3-pyridyl]-2-methyl-propanenitrile]
percent effect (mortality or growth inhibition) at 200 ppm [2]: ≥ 80%

CCS(=N)(=O)c1cc(OC(C)(C)C#N)cnc1-c1ncc2c(OCC(F)(F)C(F)(F)F)cccn12 (centres unmarked) [Compound P49, 2-[[5-(ethylsulfonimidoyl)-6-[8-(2,2,3,3,3-penta-fluoropropoxy)imidazo [1,5-a]pyridin-3-yl]-3-pyridyl]oxy]-2-methyl-propanenitrile]
percent effect (mortality or growth inhibition) at 200 ppm [1]: ≥ 80%
percent effect (mortality or growth inhibition) at 200 ppm [2]: ≥ 80%

CCSc1cc(C2(C#N)CC2)cnc1-c1ncc2c(OCC(F)(F)C(F)(F)F)cccn12 [Compound P53, 1-[5-ethylsulfanyl-6-[8-(2,2,3,3,3-penta-fluoropropxoy)imidazo [1,5-a]pyridin-3-yl]-3-pyridyl]cyclopropane-carbonitrile]
percent effect (mortality or growth inhibition) at 200 ppm [1]: ≥ 80%
percent effect (mortality or growth inhibition) at 200 ppm [2]: ≥ 80%
